# From patent US11572590B2, “Methods for evaluating tumor cell spheroids using 3D microfluidic cell culture device” (Dana-Farber Cancer Institute, Inc., priority 2017, dated 2023)
# Like-named read-outs stand apart in the source and are kept apart here.
# How the values were obtained:
# Assay in all cases: SelectScreen Kinase Profiling, single point inhibition and IC50 for off-target kinases
# Assay type in all cases: biochemical
# off-target kinases [1] = biological target: off-target kinases (Homo sapiens, UniProt P78368); settings: CSNK1G2 (CK1 gamma 2); Cmpd1 1000 μM; ATP Km app; ZLYTE
# off-target kinases [2] = biological target: T1, off-target kinases (Homo sapiens, UniProt Q96L34); settings: MARK4, ATP Km app, ZLYTE
# T1 sequence (Q96L34 1-752): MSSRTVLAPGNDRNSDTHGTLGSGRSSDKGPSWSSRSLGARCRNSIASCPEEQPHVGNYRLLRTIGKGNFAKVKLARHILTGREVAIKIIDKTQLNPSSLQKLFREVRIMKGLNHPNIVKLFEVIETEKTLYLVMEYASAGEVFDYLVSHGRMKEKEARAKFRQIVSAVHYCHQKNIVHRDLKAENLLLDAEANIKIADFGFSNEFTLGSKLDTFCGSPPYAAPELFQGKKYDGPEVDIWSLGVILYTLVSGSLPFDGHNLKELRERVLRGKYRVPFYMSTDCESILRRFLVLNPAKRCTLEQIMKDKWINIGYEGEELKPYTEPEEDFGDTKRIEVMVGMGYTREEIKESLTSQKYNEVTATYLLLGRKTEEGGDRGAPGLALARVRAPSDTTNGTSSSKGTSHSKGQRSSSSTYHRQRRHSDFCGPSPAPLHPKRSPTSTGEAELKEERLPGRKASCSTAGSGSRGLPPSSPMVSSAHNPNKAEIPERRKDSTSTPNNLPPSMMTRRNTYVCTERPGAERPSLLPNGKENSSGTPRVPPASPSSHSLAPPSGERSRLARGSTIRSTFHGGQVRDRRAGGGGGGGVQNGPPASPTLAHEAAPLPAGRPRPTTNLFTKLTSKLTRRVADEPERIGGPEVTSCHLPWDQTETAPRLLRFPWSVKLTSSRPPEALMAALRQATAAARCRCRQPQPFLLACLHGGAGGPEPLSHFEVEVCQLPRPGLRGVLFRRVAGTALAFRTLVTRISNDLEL
# off-target kinases [3] = biological target: T2, off-target kinases (Homo sapiens, UniProt Q9UBE8); settings: NLK, LanthaScreen Binding
# T2 sequence (Q9UBE8 1-527): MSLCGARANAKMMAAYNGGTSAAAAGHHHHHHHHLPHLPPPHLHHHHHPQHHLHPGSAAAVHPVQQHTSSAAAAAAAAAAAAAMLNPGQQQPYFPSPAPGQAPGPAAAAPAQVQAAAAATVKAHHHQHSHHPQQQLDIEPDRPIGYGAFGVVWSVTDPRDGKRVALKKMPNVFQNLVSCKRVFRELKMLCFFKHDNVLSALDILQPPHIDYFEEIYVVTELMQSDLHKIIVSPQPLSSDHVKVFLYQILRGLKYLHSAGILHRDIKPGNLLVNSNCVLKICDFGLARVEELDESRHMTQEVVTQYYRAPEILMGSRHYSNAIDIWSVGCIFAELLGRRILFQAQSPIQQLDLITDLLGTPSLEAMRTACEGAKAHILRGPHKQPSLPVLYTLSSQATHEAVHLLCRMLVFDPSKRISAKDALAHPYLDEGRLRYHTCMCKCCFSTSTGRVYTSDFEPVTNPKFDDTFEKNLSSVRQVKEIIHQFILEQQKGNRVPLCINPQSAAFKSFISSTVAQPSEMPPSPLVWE
# Sequence of off-target kinases (Homo sapiens, UniProt P78368) (P78368 whole entry): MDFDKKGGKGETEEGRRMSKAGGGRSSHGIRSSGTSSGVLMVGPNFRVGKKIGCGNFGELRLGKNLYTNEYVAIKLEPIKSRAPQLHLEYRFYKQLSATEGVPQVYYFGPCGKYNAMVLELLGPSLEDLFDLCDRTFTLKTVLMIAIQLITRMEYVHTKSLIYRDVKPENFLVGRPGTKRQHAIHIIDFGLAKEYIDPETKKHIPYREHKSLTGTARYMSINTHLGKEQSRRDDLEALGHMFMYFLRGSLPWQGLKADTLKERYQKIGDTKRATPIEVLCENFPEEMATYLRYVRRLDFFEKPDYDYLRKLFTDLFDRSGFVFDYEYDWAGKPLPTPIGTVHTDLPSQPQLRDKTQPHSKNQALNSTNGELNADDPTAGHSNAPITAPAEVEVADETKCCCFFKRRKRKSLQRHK
smiles,measurement,setting,value
"N#Cc1cc(-c2ncnc(Nc3ccc(N4CCN(C5COC5)CC4)cc3)n2)ccc1OC1CCOCC1 [Compound 1, 5-(4-((4-(4-(oxetan-3-yl)piperazin-1-yl)phenyl)amino)-1,3,5-triazin-2-yl)-2-((tetrahydro-2H-pyran-4-yl)oxy)benzonitrile]",% Inhibition 1,off-target kinases [1],−7%
same,% Inhibition 2,off-target kinases [1],−16%
same,% Inhibition Avg,off-target kinases [1],−11%
same,inhibition,off-target kinases [2]; read-out: % Inhibition 1,96%
same,inhibition,off-target kinases [2]; read-out: % Inhibition 2,93%
same,inhibition,off-target kinases [2]; read-out: % Inhibition Avg,95%
same,inhibition,off-target kinases [3]; read-out: % Inhibition 1,26%
same,inhibition,off-target kinases [3]; read-out: % Inhibition 2,29%
same,inhibition,off-target kinases [3]; read-out: % Inhibition Avg,28%
